Among the data in patent US7649002B2, “(3,5-dimethylpiperidin-1yl)(4-phenylpyrrolidin-3-yl)methanone derivatives as MCR4 agonists” (Pfizer Inc, priority 2004, dated 2010) are EC50 values, retold here.

This experiment concerns the target T1, human MCR4 receptor (Homo sapiens, UniProt P32245).
T1 construct: expressed in transfected cells
Briefly: MCR4 improved functional assay (Protocol E): CHO-K1-MC4R-CRE-β-lactamase reporter. The format is cell-based. An excerpt:
(ii) MCR5 Standard Functional Assay Methodology and MCR4 Improved Functional Assay Methodology [Assay Protocol D and E Respectively] […] These cell lines were engineered using protocols akin to those outlined by Zaccolo et al (Zaccolo, M., (2000) Nature, 2(1); 25-29). Compound-induced activation of the MCR5 or MCR4 receptors in these two cell lines stimulated the production, and intracellular accumulation, of the enzyme β-lactamase. The quantity of β-lactamase enzyme produced was directly proportional to the degree to which the test compound activated the MCR5 or MCR4 receptors present on these cells and was quantified using the P-lactamase gene reporter analysis kit that is commercially available from Invitrogen Life Technologies. An in-depth description of this technology and assay protocols are available from the Invitrogen web site (www.invitrogen.com). The protocol listed below provides a summary of that assay methodology. The quantity of β-lactamase enzyme produced by compound-induced activation of the MCR5 or MCR4 receptors expressed in these cell lines was quantified using a LjI Biosystems Analyst™ HT 96.384 plate reader set to excite at a wave length of 405 nm, and measure the energy emitted at wave lengths of 450 nm and 530 nm. Cellular responses were quantified by dividing the measured energy emitted at a wavelength of 450 nm by the measured energy emitted at a wavelength of 530 nm. […] CCF4-AM was dissolved in 100% DMSO to give a final solution concentration of 1 mM. This solution was termed Solution A. Probenecid was dissolved in 200 mM NaOH to give a final solution concentration of 200 mM. This solution was termed Solution D. Composition of the β-lactamase assay dye solution: for 1072 μL of assay dye solution combine: 12 μL of Solution A, 60 μL of Solution B, 925 μL of Solution C and 75 μL of Solution D. […] Cells were grown in T225 vent cap flasks containing 50 ml of growth medium and maintained in a cell incubator at a temperature of 37° C. and in an environment containing 5% CO2. The composition of the growth medium for the CHO-K1-MC5R-CRE-β-lactamase was 90% v/v DMEM supplemented with; Glutamax-1, 25 mM HEPES, 10% v/v foetal calf serum (FCS), 1 mM sodium pyruvate, 0.1 mM non essential amino acids and 800 μg/ml genetic in. For the CHO-K1-MC4R-CRE-β-lactamase this growth media was further supplemented with […] Zeocin. Cells were harvested when they reached 80-90% confluency by first removing the existing growth medium and then washing with PBS that had been pre-warmed to a temperature of 37° C. This PBS was then removed and 5 ml of cell dissociation fluid added to the flask. These cells were incubated for 5 minutes in a cell incubator set at a temperature of 37° C. and in an environment containing 5% CO2 to detach the cells. When cells were detached, pre-warmed growth media was added, the cells re-suspended and mixed gently to achieve a single cell suspension by pipetting. This cell suspension was then used for experimentation, or transferred into a new T225 flask to perpetuate the cell culture. […] For each assay the cell plates were then retuned to a cell incubator maintained at a temperature of 37° C. and in an environment containing 5% CO2 overnight before performing the assay on the second assay day. […] For the MCR4 improved functional assay methodology the solution of cyclohexamide was not added. Subsequently, 10 μL of the test compound solution was transferred to the assay plate. The assay plate was then transferred to a cell incubator, set at 37° C. and in an environment containing 5% CO2, and left for 4 hours for the MCR4 improved assay methodology, or 5 hours for the MCR5 standard assay methodology. After this incubation period the plate was removed from the incubator, 10 μL of the […] assay dye solution was added to each well and then the plate returned to the cell incubator.

The mark [1] stands for this setting: Protocols C or E, read-out: functional potency at the MC4 receptor (EC50).

Usually EC50 stands for the concentration at which the effect is half-maximal.

Like-named read-outs stand apart in the source and are kept apart here.

T1 sequence (P32245 whole entry): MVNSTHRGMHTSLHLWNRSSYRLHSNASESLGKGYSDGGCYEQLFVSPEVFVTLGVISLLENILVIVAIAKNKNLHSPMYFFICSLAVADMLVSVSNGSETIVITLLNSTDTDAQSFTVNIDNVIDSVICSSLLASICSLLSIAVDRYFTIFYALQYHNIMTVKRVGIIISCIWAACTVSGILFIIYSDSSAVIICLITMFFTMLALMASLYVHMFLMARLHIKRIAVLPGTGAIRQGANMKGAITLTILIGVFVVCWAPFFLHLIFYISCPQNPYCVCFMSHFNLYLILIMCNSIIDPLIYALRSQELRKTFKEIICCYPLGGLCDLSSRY

As for `C[C@@H]1CN(C(=O)[C@@H]2CN(C(C)(C)C)C[C@H]2c2ccc(F)cc2F)C[C@H](C)[C@@]1(O)c1ccccc1` [Example 1, (3R,4R,5S)-1-{[(3S,4R)-1-tert-Butyl-4-(24-difluorophenyl)pyrrolidin-3-yl]carbonyl}-3,5-dimethyl-4-phenylpiperidin-4-ol], under setting [1], the concentration for a half-maximal effect (EC50) was under 10 nM.

In the case of `C[C@@H]1CN(C(=O)[C@@H]2CN(C(C)(C)C)C[C@H]2c2ccc(F)cc2F)C[C@H](C)[C@@]1(O)c1ccccc1.Cl` [Example 5, (3R,4R,5S)-1-{[(3S,4R)-1-tert-Butyl-4-(2,4-difluorophenyl)pyrrolidin-3-yl]carbonyl}-3,5-dimethyl-4-phenylpiperidin-4-ol hydrochloride], the EC50 was under 10 nM under setting [1] and 9.6 nM (Table 6, read-out: MCR4 EC50).

Take `CC(C)N1C[C@@H](C(=O)N2C[C@@H](C)[C@](O)(c3ccccc3)[C@@H](C)C2)[C@H](c2ccc(F)cc2F)C1.Cl` [Example 6, (3R,4R,5S)-1-{[(3S,4R)-4-(2,4-Difluorophenyl)-1-isopropylpyrrolidin-3-yl]carbonyl}-3,5-dimethyl-4-phenylpiperidin-4-ol hydrochloride]: the EC50 is 19 nM (MCR4 EC50 (nM), Table 6) and under 50 nM (functional potency at the MC4 receptor (EC50), Protocols C or E).

Turning to `C[C@@H]1CN(C(=O)[C@@H]2CNC[C@H]2c2ccc(F)cc2F)C[C@H](C)[C@@]1(O)c1ccc(F)cc1.Cl` [Example 12, (3R,4R,5S)-1-{[(3S,4R)-4-(2,4-difluorophenyl)pyrrolidin-3-yl]carbonyl}-4-(4-fluorophenyl)-3,5-dimethylpiperidin-4-ol hydrochloride], the EC50 by setting is: under setting [1], under 150 nM; (Table 6, read-out: MCR4 EC50) 75 nM.

On to `C[C@@H]1CN(C(=O)[C@@H]2CN(C(C)(C)C)C[C@H]2c2ccc(F)cc2F)C[C@H](C)[C@@]1(O)c1ccc(Cl)cc1.Cl` [Example 13, (3R,4R,5S)-1-{[(3S,4R)-1-tert-butyl-4-(2,4-difluorophenyl)pyrrolidin-3-yl]carbonyl}-4-(4-chlorophenyl)-3,5-dimethylpiperidin-4-ol hydrochloride], for which the concentration for a half-maximal effect (EC50) by setting is: under setting [1], under 50 nM; (Table 6, read-out: MCR4 EC50) 27 nM.

In the case of `C[C@@H]1CN(C(=O)[C@@H]2CN(c3ccccn3)C[C@H]2c2ccc(F)cc2F)C[C@H](C)[C@@]1(O)c1ccccc1.Cl` [Example 31, (3R,4R,5S)-1-{[(3S,4R)-4-(2,4-difluorophenyl)-1-pyridin-2-ylpyrrolidin-3-yl]carbonyl}-3,5-dimethyl-4-phenylpiperidin-4-ol hydrochloride], the EC50 was under 10 nM under setting [1] and 3.6 nM (Table 6, read-out: MCR4 EC50).

As for `C[C@@H]1CN(C(=O)[C@@H]2CN(c3cccnn3)C[C@H]2c2ccc(F)cc2F)C[C@H](C)[C@@]1(O)c1ccccc1.Cl` [Example 35, (3R,4R,5S)-1-{[(3S,4R)-4-(2,4-difluorophenyl)-1-pyridazin-3-ylpyrrolidin-3-yl]carbonyl}-3,5-dimethyl-4-phenylpiperidin-4-ol hydrochloride], the EC50 reads like this: under setting [1], under 10 nM; (Table 6, read-out: MCR4 EC50) 1.5 nM.
